We go through 49 compounds from patent US11384079B2, “6-5 fused rings as C5a inhibitors” (CHEMOCENTRYX, INC., priority 2017, dated 2022).

This assay deals with T1, C5aR (Homo sapiens, UniProt P21730).
T1 construct: U937 cells are a monocytic cell line which express C5aR; host or cells: U937 cells (cAMP treated) or isolated neutrophils
T1 sequence (P21730 1-350): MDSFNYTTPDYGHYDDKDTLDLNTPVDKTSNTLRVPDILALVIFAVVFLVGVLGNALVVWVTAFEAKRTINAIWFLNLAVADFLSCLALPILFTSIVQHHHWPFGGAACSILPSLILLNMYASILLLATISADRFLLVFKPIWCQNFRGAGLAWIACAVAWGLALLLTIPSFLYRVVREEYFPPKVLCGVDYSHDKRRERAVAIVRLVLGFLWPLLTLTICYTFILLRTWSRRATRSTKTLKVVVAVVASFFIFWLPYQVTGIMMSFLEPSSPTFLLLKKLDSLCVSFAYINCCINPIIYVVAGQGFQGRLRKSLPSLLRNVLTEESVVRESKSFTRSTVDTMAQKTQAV
As to the kind of experiment: chemotaxis assay (C5aR mediated migration). The class given is cell-based. As to conditions: migration of U937 or neutrophil cells toward C5a (0.03 nM), 1.5 hours at 37° C., read-out: Mig IC50. The protocol:
U937 cells are a monocytic cell line which express C5aR, and are available from ATCC (VA). […] Cells were grown under 5% CO2/95% air, 100% humidity at 37° C. and subcultured twice weekly at 1:6 (cells were cultured at a density range of 1×10^5 to 2×10^6 cells/mL) and harvested at 1×10^6 cells/mL. Prior to assay, cells are treated overnight with 0.5 mM of cyclic AMP (Sigma, Ohio) and washed once prior to use. cAMP treated U937 cells can be used in C5aR ligand binding and functional assays.
Optionally, human or murine neutrophils can be used to assay for compound activity. Neutrophils may be isolated from fresh human blood using density separation and centrifugation. Briefly, whole blood is incubated with equal parts 3% dextran and allowed to separate for 45 minutes. After separation, the top layer is layered on top of 15 mls of Ficoll (15 mls of Ficoll for every 30 mls of blood suspension) and centrifuged for 30 minutes at 400×g with no brake. The pellet at the bottom of the tube is then isolated and resuspended into PharmLyse RBC Lysis Buffer (BD Biosciences, San Jose, Calif.) after which the sample is again centrifuged for 10 minutes at 400×g with brake. The remaining cell pellet is resuspended as appropriate and consists of isolated neutrophils.
Optionally, compounds may be further assayed for their ability to inhibit chemotaxis in cells. Chemotaxis assays are performed using 5 μm pore polycarbonate, polyvinylpyrrolidone-coated filters in 96-well chemotaxis chambers (Neuroprobe; Gaithersburg, Md.) using chemotaxis buffer (Hank's balanced salt solution (HBSS) and 1% FBS). C5aR ligands (i.e., C5a, R&D Systems; Minneapolis, Minn.) are use to evaluate compound mediated inhibition of C5aR mediated migration. Other chemokines (i.e., SDF-1α; R&D Systems; Minneapolis, Minn.) are used as specificity controls. […] The chambers are incubated 1.5 hours at 37° C., and the number of cells in the lower chamber quantified either by direct cell counts in five high powered fields per well or by the CyQuant assay (Molecular Probes), a fluorescent dye method that measures nucleic acid content and microscopic observation.

Molecules are shown by their SMILES.

What is called IC50 is the midpoint of a concentration-inhibition curve. On to `CCc1cccc(CC)c1-n1nc2c(c1-c1ccc(Cl)c3[nH]ccc13)CN(c1ncc(CO)cn1)CC2` [Example 1.097], for which the half-maximal inhibitory concentration (IC50) is 5 to 50 nM.

Take `CCc1cccc(CC)c1-n1nc2c(c1-c1c(F)cc(CO)c3[nH]ccc13)CN(c1ncc(C(C)C)cn1)CC2` [Example 1.098]: the IC50 is below 5 nM.

On to `CCc1cccc(CC)c1-n1nc2c(c1-c1ccc(Cl)c3[nH]ccc13)CN(c1ncc(Cl)cc1F)CC2` [Example 1.099], for which the IC50 is below 5 nM.

For `CCc1cccc(CC)c1-n1nc2c(c1-c1c(F)cc(CO)c3[nH]ccc13)CN(c1ccc(C(F)(F)F)cn1)CC2` [Example 1.100], the concentration for half-maximal inhibition (IC50) is below 5 nM.

Consider `CCc1cccc(CC)c1-n1nc2c(c1-c1c(F)cc(CO)c3[nH]ccc13)CN(c1ncc(C(F)(F)F)cn1)CC2` [Example 1.101], for which the 50% inhibitory concentration (IC50) is below 5 nM.

For `Cc1cccc(C)c1-n1nc2c(c1-c1cc(F)c(C)c3[nH]ccc13)CN(c1ncc(C(F)(F)F)cn1)CC2` [Example 1.102], the IC50 was in the range of 5 to 50 nM.

As to `Cc1cccc(C)c1-n1nc2c(c1-c1cc(F)c(C)c3[nH]ccc13)CN(c1ncc(C(F)(F)F)cc1F)CC2` [Example 1.103], the half-inhibitory concentration (IC50) fell in the range of 5 to 50 nM.

Turning to `CCc1cccc(CC)c1-n1nc2c(c1-c1c(F)cc(CO)c3[nH]ccc13)CN(c1ncc(C(F)(F)F)cc1F)CC2` [Example 1.104], the half-maximal inhibitory concentration (IC50) is below 5 nM.

As for `Cc1cccc(C)c1-n1nc2c(c1-c1c(F)cc(Cl)c3[nH]ccc13)CN(c1ncc(C(C)C)cc1F)CC2` [Example 1.105], the half-inhibitory concentration (IC50) was in the range of 5 to 50 nM.

On to `Cc1cccc(C)c1-n1nc2c(c1-c1c(F)cc(Cl)c3[nH]ccc13)CN(c1ccc(C(C)C)cn1)CC2` [Example 1.106], for which the IC50 is below 5 nM.

Consider `Cc1cccc(C)c1-n1nc2c(c1-c1ccc(C)c3[nH]ccc13)CN(c1ncc(C(F)(F)F)cn1)CC2` [Example 1.107], for which the IC50 lay in the range of 5 to 50 nM.

`Cc1cccc(C)c1-n1nc2c(c1-c1ccc(C)c3[nH]ccc13)CN(c1ncc(C(F)(F)F)cc1F)CC2` [Example 1.108]: the half-inhibitory concentration (IC50) fell in the range of 5 to 50 nM.

As to `CCc1cccc(CC)c1-n1nc2c(c1-c1c(F)cc(Cl)c3[nH]ccc13)CN(c1ccc(C(C)C)cn1)CC2` [Example 1.109], the IC50 was below 5 nM.

Take `CCc1cccc(CC)c1-n1nc2c(c1-c1ccc(Cl)c3[nH]ccc13)CN(c1nccc(C)n1)CC2` [Example 1.110]: the half-maximal inhibitory concentration (IC50) was in the range of 5 to 50 nM.

With `COc1cnc(N2CCc3nn(-c4c(C)cccc4C)c(-c4c(F)cc(Cl)c5[nH]ccc45)c3C2)nc1` [Example 1.111], the IC50 was in the range of 5 to 50 nM.

Take `COc1cnc(N2CCc3nn(-c4c(C)cccc4C)c(-c4ccc(Cl)c5[nH]ccc45)c3C2)nc1` [Example 1.112]: the 50% inhibitory concentration (IC50) lay within 5 to 50 nM.

On to `CCc1cccc(CC)c1-n1nc2c(c1-c1ccc(Cl)c3[nH]ccc13)CN(c1nccc(OC)n1)CC2` [Example 1.113], for which the IC50 is below 5 nM.

As to `COc1cnc(N2CCc3nn(-c4c(C)cccc4C)c(-c4ccc(C)c5[nH]ccc45)c3C2)nc1` [Example 1.114], the IC50 fell in the range of 5 to 50 nM.

On to `CCc1cccc(CC)c1-n1nc2c(c1-c1cc(F)c(C)c3[nH]ccc13)CN(c1ncc(C(C)C)cn1)CC2` [Example 1.115], for which the IC50 is below 5 nM.

As to `CCc1cccc(CC)c1-n1nc2c(c1-c1cc(F)c(F)c3[nH]ccc13)CN(c1ccc(C(F)(F)F)cn1)CC2` [Example 1.116], the IC50 lay in the range of 5 to 50 nM.

Take `CCc1cccc(CC)c1-n1nc2c(c1-c1cc(F)c(F)c3[nH]ccc13)CN(c1ncc(C(C)C)cn1)CC2` [Example 1.117]: the IC50 was in the range of 5 to 50 nM.

Take `CCc1cccc(CC)c1-n1nc2c(c1-c1cc(F)c(F)c3[nH]ccc13)CN(c1ncc(C(F)(F)F)cn1)CC2` [Example 1.118]: the concentration for half-maximal inhibition (IC50) is 5 to 50 nM.

In the case of `CCc1cccc(CC)c1-n1nc2c(c1-c1ccc(Cl)c3[nH]ncc13)CN(c1ncc(C(F)(F)F)cc1F)CC2` [Example 1.119], the half-inhibitory concentration (IC50) is 5 to 50 nM.

`CCc1cccc(CC)c1-n1nc2c(c1-c1cc(F)c(F)c3[nH]ccc13)CN(c1ncc(C(F)(F)F)cc1F)CC2` [Example 1.120]: the half-inhibitory concentration (IC50) was 5 to 50 nM.

In the case of `CCc1cccc(CC)c1-n1nc2c(c1-c1ccc(Cl)c3[nH]ccc13)CN(c1ncc(Cl)c(OC)n1)CC2` [Example 1.121], the IC50 was 5 to 50 nM.

Turning to `Cc1cccc(C)c1-n1nc2c(c1-c1c(F)cc(Cl)c3[nH]ccc13)CN(c1ncc(C(F)(F)F)cn1)CC2` [Example 1.122], the IC50 fell in the range of 5 to 50 nM.

Regarding `CCc1cccc(CC)c1-n1nc2c(c1-c1cc(F)c(C)c3[nH]ccc13)CN(c1ncc(C(F)(F)F)cc1F)CC2` [Example 1.123], the IC50 was below 5 nM.

On to `Cc1cccc(C)c1-n1nc2c(c1-c1c(F)cc(Cl)c3[nH]ccc13)CN(c1ncc(C(F)(F)F)cc1F)CC2` [Example 1.124], for which the IC50 was 5 to 50 nM.

For the compound `CCc1cccc(CC)c1-n1nc2c(c1-c1c(F)cc(Cl)c3[nH]ccc13)CN(c1ncc(C(C)C)cc1F)CC2` [Example 1.125], the half-maximal inhibitory concentration (IC50) is below 5 nM.

Regarding `CCc1cccc(CC)c1-n1nc2c(c1-c1ccc(Cl)c3[nH]ccc13)CN(c1ncc(OC)cn1)CC2` [Example 1.126], the 50% inhibitory concentration (IC50) is below 5 nM.

Regarding `CCc1cccc(CC)c1-n1nc2c(c1-c1ccc(C)c3[nH]ccc13)CN(c1ccc(C(C)C)cn1)CC2` [Example 1.127], the IC50 was below 5 nM.

For the compound `CCc1cccc(CC)c1-n1nc2c(c1-c1c(F)cc(C)c3[nH]ccc13)CN(c1ccc(C(C)C)cn1)CC2` [Example 1.128], the IC50 is below 5 nM.

For the compound `CCc1cccc(CC)c1-n1nc2c(c1-c1ccc(Cl)c3[nH]ccc13)CN(c1nccc(N)n1)CC2` [Example 1.129], the IC50 is 50 to 500 nM.

With `Cc1cccc(C)c1-n1nc2c(c1-c1ccc(C)c3[nH]ccc13)CN(c1ccc(C(F)(F)F)cn1)CC2` [Example 1.130], the concentration for half-maximal inhibition (IC50) was in the range of 5 to 50 nM.

For `Cc1cccc(C)c1-n1nc2c(c1-c1ccc(C)c3[nH]ccc13)CN(c1ncc(C(C)C)cn1)CC2` [Example 1.131], the IC50 was 5 to 50 nM.

Regarding `CCc1cccc(CC)c1-n1nc2c(c1-c1c(F)cc(Cl)c3[nH]ccc13)CN(c1ncc(C(C)C)cn1)CC2` [Example 1.132], the half-inhibitory concentration (IC50) is below 5 nM.

As for `CCc1cccc(CC)c1-n1nc2c(c1-c1c(F)cc(Cl)c3[nH]ccc13)CN(c1ccc(C(F)(F)F)cn1)CC2` [Example 1.133], the 50% inhibitory concentration (IC50) is below 5 nM.

For `COc1cccc(C)c1-n1nc2c(c1-c1ccc3[nH]ccc3c1)CN(C(=O)OC(C)(C)C)CC2` [Example 1.134], the 50% inhibitory concentration (IC50) was 50 to 500 nM.

For the compound `CCc1cccc(CC)c1-n1nc2c(c1-c1ccc(Cl)c3[nH]ccc13)CN(c1ccc(C(C)C)cn1)CC2` [Example 1.135], the IC50 is below 5 nM.

In the case of `CCc1cccc(CC)c1-n1nc2c(c1-c1ccc(C)c3[nH]ccc13)CN(c1ncc(C(C)C)cc1F)CC2` [Example 1.136], the IC50 was below 5 nM.

Turning to `CCc1cccc(CC)c1-n1nc2c(c1-c1c(F)cc(Cl)c3[nH]ccc13)CN(c1ncc(C(F)(F)F)cn1)CC2` [Example 1.137], the concentration for half-maximal inhibition (IC50) was below 5 nM.

Regarding `CCc1cccc(CC)c1-n1nc2c(c1-c1ccc(Cl)c3[nH]ccc13)CN(c1nccc(C(F)(F)F)n1)CC2` [Example 1.138], the 50% inhibitory concentration (IC50) is below 5 nM.

On to `CCc1cccc(CC)c1-n1nc2c(c1-c1c(F)cc(C)c3[nH]ccc13)CN(c1ncc(C(C)C)cn1)CC2` [Example 1.139], for which the 50% inhibitory concentration (IC50) was below 5 nM.

As for `CCc1cccc(CC)c1-n1nc2c(c1-c1ccc(C)c3[nH]ccc13)CN(c1ncc(C(F)(F)F)cn1)CC2` [Example 1.140], the IC50 was below 5 nM.

Take `CCc1cccc(CC)c1-n1nc2c(c1-c1c(F)cc(C)c3[nH]ccc13)CN(c1ncc(C(F)(F)F)cn1)CC2` [Example 1.141]: the 50% inhibitory concentration (IC50) is below 5 nM.

As to `CCc1cccc(CC)c1-n1nc2c(c1-c1ccc(C)c3[nH]ccc13)CN(c1ccc(C(F)(F)F)cn1)CC2` [Example 1.142], the IC50 was below 5 nM.

In the case of `CCc1cccc(CC)c1-n1nc2c(c1-c1c(F)cc(C)c3[nH]ccc13)CN(c1ccc(C(F)(F)F)cn1)CC2` [Example 1.143], the IC50 is below 5 nM.

Take `CCc1cccc(CC)c1-n1nc2c(c1-c1c(F)cc(Cl)c3[nH]ccc13)CN(c1ncc(C(F)(F)F)cc1F)CC2` [Example 1.144]: the concentration for half-maximal inhibition (IC50) is below 5 nM.

For the compound `CCc1cccc(CC)c1-n1nc2c(c1-c1c(F)cc(C)c3[nH]ccc13)CN(c1ncc(C(C)C)cc1F)CC2` [Example 1.145], the half-maximal inhibitory concentration (IC50) was below 5 nM.
